Assay: xn = mol fraction of the nth substance listed, in the solute-free solvent

Nc1cccc2c1CN(C1CCC(=O)NC1=O)C2=O (stereo unspecified) + CCOC(C)=O + CC(C)O
solubility (g/100 g solution)
Details	273.15 K	278.15 K	283.15 K	288.15 K	293.15 K	298.15 K	303.15 K	308.15 K	313.15 K	318.15 K
x2 = 0.1457	0.111	0.13	0.152	0.176	0.202	0.232	0.267	0.306	0.354	0.41
x2 = 0.3126	0.141	0.157	0.176	0.198	0.226	0.259	0.294	0.337	0.385	0.438
x2 = 0.5057	0.179	0.201	0.223	0.247	0.274	0.301	0.334	0.37	0.41	0.454
x2 = 0.7318	0.135	0.154	0.176	0.198	0.222	0.248	0.278	0.31	0.343	0.382

Nc1ncc(Br)nc1Br + CC(C)O + O
solubility (g/100 g solution)
Details	278.15 K	283.15 K	288.15 K	293.15 K	298.15 K	303.15 K	308.15 K	313.15 K	318.15 K	323.15 K
x2 = 0.03225	0.0151	0.0182	0.0212	0.0248	0.0285	0.032	0.0361	0.0405	0.0448	0.0495
x2 = 0.06974	0.0399	0.0475	0.0548	0.0636	0.0724	0.0809	0.0905	0.101	0.111	0.122
x2 = 0.1139	0.0745	0.0882	0.101	0.117	0.133	0.148	0.165	0.183	0.202	0.221
x2 = 0.1666	0.109	0.129	0.148	0.171	0.194	0.218	0.242	0.269	0.297	0.327
x2 = 0.2307	0.133	0.157	0.181	0.21	0.24	0.273	0.304	0.34	0.377	0.42
x2 = 0.3103	0.153	0.178	0.21	0.244	0.281	0.318	0.358	0.403	0.449	0.5
x2 = 0.4117	0.166	0.198	0.233	0.273	0.312	0.358	0.403	0.453	0.505	0.567
x2 = 0.5454	0.181	0.216	0.255	0.298	0.344	0.398	0.449	0.51	0.573	0.64
x2 = 0.7297	0.197	0.236	0.277	0.324	0.376	0.432	0.496	0.562	0.634	0.721

Nc1ncn(C2OC(CO)C(O)C2O)c(=O)n1 (stereo unspecified) + O + CCCO
solubility (g/100 g solution)
Details	278.15 K	283.15 K	288.15 K	293.15 K	298.15 K	303.15 K	308.15 K	313.15 K	318.15 K
x2 = 0.4546	0.0722	0.0869	0.104	0.124	0.149	0.177	0.208	0.241	0.279
x2 = 0.6897	0.165	0.201	0.249	0.302	0.359	0.424	0.49	0.562	0.635
x2 = 0.8334	0.298	0.368	0.448	0.54	0.637	0.744	0.852	0.965	1.07
x2 = 0.9303	0.488	0.59	0.72	0.861	1.01	1.17	1.33	1.49	1.66

Source: the CheMixHub drug solubility set
